Assay results as given in patent publication US11913882B2, “Determination of the supramolecular organization of encapsulated molecules by luminescence lifetime analysis” (SCUOLA NORMALE SUPERIORE, priority 2020, dated 2024).

Experiment: Fluorescence lifetime analysis (phasor-FLIM) of DOX organization states and Doxoves®
Assay type: physicochemical
Source text: The procedure was applied to Doxoves® as follows: • 1) Based on previous knowledge, at least three different supramolecular organizations of DOX molecules are supposed to contribute to the overall nature of Doxoves® nanocarriers: crystallized DOX, free DOX, and DOX eventually associated with the nanocarrier surface, i.e. with lipids. These three forms are defined here as standards. • 2) The three standards identified at step 1 are obtained and measured. As a preliminary step, each standard is produced and dissolved in a buffer that is the same as that of the test substance. In the present case, manufacturer's indications were followed to produce the correct buffer composition. In general, substances having an impact on lifetime analysis of the test substance, e.g. Doxoves®, shall be also present in the standard substances. First, the phasor signature of crystalized DOX and free-in-solution DOX are measured: two mono-exponential lifetimes are obtained: 0.2 ns for the crystal and 1 ns for free DOX, respectively. […] Then, by spin-coating simil-Doxoves® nanoparticles on a glass surface. This procedure destroys mechanically the liposomal particles and recovers the liposomal membranes on the glass. […] It is important to note that lifetime measuring conditions, e.g. temperature, pH etc., shall be the same for measures on the test substance and measures on the standard substances. • 5) Doxoves® lifetime data are analysed by the phasor approach. In more detail, the phasor is calculated by using a dedicated routine in the SimFCS software (Laboratory for Fluorescence Dynamics, University of California, Irvine). […] Simple algebraic rules are adopted to extract quantitatively the relative contribution (fractional intensity) of each standard (by a dedicated routine in SimFCS software). • It may still be under question whether there may be more than three organization states, e.g. four defining a trapezoidal shape within the universal circle and circumscribing the location of the test substance lifetime decay within the universal circle. A final control experiment was thus performed to corroborate the hypothesis that only three standard components (and NOT more than three) contribute to the overall organization of encapsulated DOX. In brief, the lifetime of simil-Doxoves® in solution is measured. If only three components contribute to Doxoves® organization, simil-Doxoves® is expected to be a linear combination of just free DOX and DOX associated to nanocarrier lipids, thus lying along the segment that connects these two states.

[1] = within tested nanoparticles, FIG. 4, phasor plot triangle

fluorescence lifetime of free DOX in solution, mono-exponential (pure standard, free in water/buffer, phasor approach): 1 ns | fluorescence lifetime of crystalized DOX (purified rod-shaped crystals), mono-exponential (pure standard, excitation 470 nm, emission 500-650 nm, phasor approach): 0.2 ns | fractional intensity of DOX conjugate with the lipids [1]: 46% | fractional intensity of DOX organized into nanorod crystals [1]: 36% | fractional intensity of free DOX [1]: 18%
Structure (SMILES): COc1cccc2c1C(=O)c1c(O)c3c(c(O)c1C2=O)C[C@@](O)(C(=O)CO)C[C@@H]3O[C@H]1C[C@H](N)[C@H](O)[C@H](C)O1 [DOX, doxorubicin]
